The text below walks through data of ChEMBL document CHEMBL4052588, “Design of a Biased Potent Small Molecule Inhibitor of the Bromodomain and PHD Finger-Containing (BRPF) Proteins Suitable for Cellular and in Vivo Studies” (J Med Chem, 2017).

Test [1] has as its target T1, Bromodomain-containing protein 9 (Homo sapiens, UniProt Q9H8M2).
T1 sequence (Q9H8M2 whole entry): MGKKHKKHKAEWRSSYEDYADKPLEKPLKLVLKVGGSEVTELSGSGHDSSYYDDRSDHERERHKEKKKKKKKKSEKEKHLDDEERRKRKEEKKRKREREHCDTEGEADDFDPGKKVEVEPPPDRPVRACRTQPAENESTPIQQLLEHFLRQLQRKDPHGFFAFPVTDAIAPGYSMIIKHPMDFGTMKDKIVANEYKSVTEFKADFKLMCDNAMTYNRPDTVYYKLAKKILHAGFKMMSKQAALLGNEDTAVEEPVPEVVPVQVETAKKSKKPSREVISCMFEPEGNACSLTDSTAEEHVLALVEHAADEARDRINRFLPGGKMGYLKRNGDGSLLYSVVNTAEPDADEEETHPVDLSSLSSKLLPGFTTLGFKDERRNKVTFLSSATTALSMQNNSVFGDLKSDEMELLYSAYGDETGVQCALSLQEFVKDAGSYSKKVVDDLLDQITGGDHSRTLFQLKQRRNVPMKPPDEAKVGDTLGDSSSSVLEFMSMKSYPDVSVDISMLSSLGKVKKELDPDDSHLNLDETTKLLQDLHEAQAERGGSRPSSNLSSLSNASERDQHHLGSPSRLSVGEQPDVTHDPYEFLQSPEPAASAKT
The test is described as follows: Inhibition of human BRD9 expressed in Escherichia coli BL21 after 1 hr by BROMOscan assay.

Test [2] has as its target T2, Bromodomain-containing protein 1 (Homo sapiens, UniProt O95696).
T2 sequence (O95696 whole entry): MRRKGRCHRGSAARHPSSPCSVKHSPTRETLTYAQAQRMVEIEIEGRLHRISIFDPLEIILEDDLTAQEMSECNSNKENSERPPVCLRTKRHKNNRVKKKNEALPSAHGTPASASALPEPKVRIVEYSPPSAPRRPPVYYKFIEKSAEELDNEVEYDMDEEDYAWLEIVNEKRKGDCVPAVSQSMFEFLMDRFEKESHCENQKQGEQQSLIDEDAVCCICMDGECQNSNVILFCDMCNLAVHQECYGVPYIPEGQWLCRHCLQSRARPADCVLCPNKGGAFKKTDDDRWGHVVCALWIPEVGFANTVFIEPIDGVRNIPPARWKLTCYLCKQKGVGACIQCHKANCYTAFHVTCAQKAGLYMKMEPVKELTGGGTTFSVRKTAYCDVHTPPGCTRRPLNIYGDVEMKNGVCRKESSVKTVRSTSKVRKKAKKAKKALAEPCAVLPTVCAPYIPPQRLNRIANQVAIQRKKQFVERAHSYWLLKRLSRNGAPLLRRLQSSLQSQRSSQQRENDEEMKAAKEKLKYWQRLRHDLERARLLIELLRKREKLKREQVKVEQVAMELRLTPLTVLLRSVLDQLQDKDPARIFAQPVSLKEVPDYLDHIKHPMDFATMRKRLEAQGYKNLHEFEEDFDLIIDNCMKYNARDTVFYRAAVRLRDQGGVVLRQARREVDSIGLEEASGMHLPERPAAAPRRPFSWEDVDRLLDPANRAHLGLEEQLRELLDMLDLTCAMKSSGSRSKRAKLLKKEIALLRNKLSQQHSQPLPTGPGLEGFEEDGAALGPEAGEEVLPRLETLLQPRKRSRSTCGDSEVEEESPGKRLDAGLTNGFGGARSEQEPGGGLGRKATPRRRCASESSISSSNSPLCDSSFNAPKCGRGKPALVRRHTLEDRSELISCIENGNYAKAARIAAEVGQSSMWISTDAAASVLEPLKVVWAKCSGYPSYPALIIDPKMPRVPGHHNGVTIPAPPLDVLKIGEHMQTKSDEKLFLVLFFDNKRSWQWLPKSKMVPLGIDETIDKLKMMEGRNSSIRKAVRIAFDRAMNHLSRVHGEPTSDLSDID
The test is described as follows: Inhibition of human BRPF2-BRD1 expressed in Escherichia coli BL21 after 1 hr by BROMOscan assay.

The next test has as its target T3, Peregrin (Homo sapiens, UniProt P55201).
T3 sequence (P55201 whole entry): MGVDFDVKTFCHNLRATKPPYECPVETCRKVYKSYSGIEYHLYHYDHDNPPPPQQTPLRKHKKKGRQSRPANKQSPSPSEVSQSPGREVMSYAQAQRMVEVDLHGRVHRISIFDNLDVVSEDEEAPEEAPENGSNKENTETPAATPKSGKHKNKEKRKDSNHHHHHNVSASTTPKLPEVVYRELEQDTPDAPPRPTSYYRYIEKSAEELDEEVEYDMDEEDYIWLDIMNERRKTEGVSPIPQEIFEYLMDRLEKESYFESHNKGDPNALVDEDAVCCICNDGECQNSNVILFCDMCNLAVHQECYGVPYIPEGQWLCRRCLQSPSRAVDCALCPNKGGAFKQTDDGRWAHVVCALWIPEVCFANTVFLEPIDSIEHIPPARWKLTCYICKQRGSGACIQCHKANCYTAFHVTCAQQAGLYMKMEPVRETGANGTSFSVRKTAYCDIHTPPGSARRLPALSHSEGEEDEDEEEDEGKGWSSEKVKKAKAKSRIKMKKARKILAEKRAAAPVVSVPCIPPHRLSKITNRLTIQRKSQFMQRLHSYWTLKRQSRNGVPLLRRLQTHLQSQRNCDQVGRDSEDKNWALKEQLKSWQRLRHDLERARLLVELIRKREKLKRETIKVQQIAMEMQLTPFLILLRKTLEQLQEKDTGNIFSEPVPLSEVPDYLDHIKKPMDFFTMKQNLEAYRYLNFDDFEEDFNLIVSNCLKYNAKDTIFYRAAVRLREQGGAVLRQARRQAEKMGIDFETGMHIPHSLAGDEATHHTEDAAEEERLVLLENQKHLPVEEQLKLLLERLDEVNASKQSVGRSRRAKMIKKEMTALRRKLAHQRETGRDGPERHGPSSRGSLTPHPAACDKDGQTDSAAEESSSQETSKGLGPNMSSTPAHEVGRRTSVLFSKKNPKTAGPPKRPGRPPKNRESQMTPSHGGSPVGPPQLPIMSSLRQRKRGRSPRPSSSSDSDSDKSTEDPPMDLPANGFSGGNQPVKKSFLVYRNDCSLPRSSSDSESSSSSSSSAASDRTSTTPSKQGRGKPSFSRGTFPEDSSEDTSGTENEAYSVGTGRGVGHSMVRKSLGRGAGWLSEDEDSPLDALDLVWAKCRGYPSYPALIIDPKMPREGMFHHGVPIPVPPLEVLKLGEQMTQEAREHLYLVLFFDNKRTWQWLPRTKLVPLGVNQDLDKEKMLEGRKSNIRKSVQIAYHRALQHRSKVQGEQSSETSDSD
The test is described as follows: Inhibition of human BRPF1 expressed in Escherichia coli BL21 after 1 hr by BROMOscan assay.

For test [3], the target named is Bromodomain-containing protein 4 (Homo sapiens, UniProt O60885). The test is described as follows: Inhibition of human BRD4-BD1 expressed in Escherichia coli BL21 after 1 hr by BROMOscan assay.

Where only a bound is given, the exact number is not on record here.

Turning to `Cn1c(=O)ccc2cc(NS(=O)(=O)c3ccc(C#N)c(Cl)c3)ccc21`, the IC50 in test [1] was 2500 nM; in test [2], 450 nM; at Peregrin, 62 nM; in test [3], 7200 nM.
The matching figures for `COc1ccccc1C(=O)Nc1cc2cc(C)c(=O)n(C)c2cc1N1CCCC1`: 420 nM, 2600 nM, 220 nM and 4600 nM.
The matching figures for `COc1cc2c(cc1NS(=O)(=O)c1ccc(C#N)cc1)c(C)cc(=O)n2C`: 890 nM, 1800 nM, 60 nM and 17000 nM.
For `CCc1cc2cc(NS(=O)(=O)c3ccc(C#N)cc3)ccc2n(CC)c1=O` the same measures were above 100000 nM, above 100000 nM, above 100000 nM and above 100000 nM.
With `Cc1cc2cc(NS(=O)(=O)c3ccc(C#N)cc3)ccc2n(C)c1=O`, the IC50 worked out at 310 nM in test [1], 48 nM in test [2], 7.9 nM against Peregrin and 4500 nM in test [3].

As a reminder, the IC50 is the concentration that inhibits the measured activity by half. Low values mean greater potency, high ones weaker potency.
